The record followed here is article PMC6079302, “Investigating the Mechanism of Action of Diketopiperazines Inhibitors of the Burkholderia cenocepacia Quorum Sensing Synthase CepI: A Site-Directed Mutagenesis Study” (Frontiers in Pharmacology, 2018).

One experiment deals with T1, CepI S41A mutant (Burkholderia cenocepacia, UniProt B4EMD2, S41A).
T1 sequence (B4EMD2 1-202 S41A): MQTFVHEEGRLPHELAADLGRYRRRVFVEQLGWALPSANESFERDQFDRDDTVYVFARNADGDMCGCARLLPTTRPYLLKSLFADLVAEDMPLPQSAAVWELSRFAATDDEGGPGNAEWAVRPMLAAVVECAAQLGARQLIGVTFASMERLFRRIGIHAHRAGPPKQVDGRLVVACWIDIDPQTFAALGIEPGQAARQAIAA
As to the kind of experiment: CepI activity assay (DCPIP), IC50 determination, S41A mutant. In kind it is biochemical.

The next experiment deals with T2, CepI E40Q mutant (Burkholderia cenocepacia, UniProt B4EMD2, E40Q).
T2 sequence (B4EMD2 1-202 E40Q): T1 sequence (B4EMD2 1-202 S41A)
The experiment is described as follows: CepI activity assay (DCPIP), IC50 determination, E40Q mutant. It is filed as biochemical.

The target of a further experiment is T3, CepI S41R mutant (Burkholderia cenocepacia, UniProt B4EMD2, S41R).
T3 sequence (B4EMD2 1-202 S41R): T1 sequence (B4EMD2 1-202 S41A)
The experiment is described as follows: CepI activity assay (DCPIP), IC50 determination, S41R mutant. In kind it is biochemical. The settings on record: compound 8b IC50, CepI S41R; 70 μM C8-ACP, 40 μM SAM, 4 μM CepI.

A further experiment has as its system B. cenocepacia J2315. As to the kind of experiment: Proteomic analysis (2-DE, LC-MS/MS) of treated cells compared with the ΔcepI strain. It is filed as cell-based, Burkholderia cenocepacia. The settings on record: J2315 cells treated with 25 μM 8b, compared with untreated J2315; same as ΔcepI profile. The procedure: Burkholderia cenocepacia ΔcepI ([Udine et al., 2013]) and J2315 (with or without 25 μM of 8b compound) were grown in 10 ml of LB medium until OD600 nm > 2. Cells were then harvested, resuspended in 0.2 ml of Tris-HCl 50 mM, pH 7.5, disrupted by sonication, and centrifuged at 12,000 rpm for 1 h at 4°C.
The amount of proteins present in the supernatant was quantified by bicinchoninic acid method ([Smith et al., 1985]), then 300 μg were precipitated with 10% (v/v) trichloroacetic acid. The obtained protein pellet was dissolved in 125 μL of rehydration buffer (8 M urea, 4% CHAPS (w/v), 65 mM DTE, 0.8% carrier ampholytes (v/v) and 0.5% bromophenol blue) and loaded onto 7 cm IPG strips, with nonlinear pH 3–10 gradient range (GE Healthcare), and strips rehydrated for 1 h at 20°C. The first-dimensional IEF was carried out at 15°C using an Ettan IPGphor system (GE Healthcare), by applying 30 V for 8 h, 120 V for 1 h, 500 V for 0.5 h, 1000 V for 0.5 h and 5000 V for 6 h, for a total of 29–30 kVh. […] Digital images of stained gels were acquired using VersaDoc Imaging Model 3000 (BioRad) and then subjected to quali/quantitative analysis using the PD Quest (BioRad) version 8.0.1 software. […] The software then determined the amount of spots present and calculated their intensity by applying the following algorithm: peak value (ODs/image units) ^∗σx^∗σy (standard deviations in x and y). […]

The next experiment concerns the target T4, CepI wild type (Burkholderia cenocepacia, UniProt B4EMD2).
T4 sequence (B4EMD2 1-202): T1 sequence (B4EMD2 1-202 S41A)
As to the kind of experiment: CepI activity assay (DCPIP), IC50 determination, wild type enzyme. In kind it is biochemical. The settings on record: 70 μM C8-ACP, 40 μM SAM, 4 μM CepI, read-out: compound 8b IC50. The procedure: Wild type and mutant CepI were expressed in Escherichia coli BL21(DE3) cells and purified as previously described ([Scoffone et al., 2016]).
CepI activity was determined according to [Christensen et al. (2013)]. Reaction mixtures contained 50 mM 4-(2-hydroxyethyl)-1-piperazineethanesulfonic acid (HEPES) pH 7.5, 0.005% Nonidet P-40, 0.13 mM 2,6-dichlorophenylindophenol (DCPIP), 70 μM Octanoyl-ACP (C8-ACP, prepared as reported previously) ([Quadri et al., 1998]; [Cronan and Thomas, 2009]), 40 μM S-adenosyl methionine (SAM), 4 μM CepI.
IC50 was determined measuring the enzyme activity in presence of different concentrations of compound, and values determined with the following equation ([Copeland, 2000]), where A[I] is the enzyme activity at inhibitor concentration [I] and A[0] is the enzyme activity without inhibitor.

Another experiment deals with T5, CepI R24Q mutant (Burkholderia cenocepacia, UniProt B4EMD2, R24Q).
T5 sequence (B4EMD2 1-202 R24Q): T1 sequence (B4EMD2 1-202 S41A)
The experiment is described as follows: CepI activity assay (DCPIP), IC50 determination, R24Q mutant. It is filed as biochemical.

A further experiment concerns the target T6, CepI Q46R mutant (Burkholderia cenocepacia, UniProt B4EMD2, Q46R).
T6 sequence (B4EMD2 1-202 Q46R): T1 sequence (B4EMD2 1-202 S41A)
As to the kind of experiment: CepI activity assay (DCPIP), IC50 determination, Q46R mutant. In kind it is biochemical.

Broadly, the IC50 is the point on the concentration scale where inhibition reaches its midpoint. Consider `O=C1C=CC(=O)C(C2NC(=O)[C@H](Cc3ccccc3)NC2=O)=C1` (stereo partly drawn) [8b, (3S)-3-Benzyl-6-(3,6-dioxocyclohexa-1,4-dien-1-yl)piperazine-2,5-dione], for which the half-inhibitory concentration (IC50) at CepI S41A mutant came to 113 ± 11 µM; against CepI E40Q mutant it was 53 ± 2.6 µM; on CepI S41R mutant, 1070 ± 75 µM; at CepI wild type, 7.2 ± 0.2 µM; against CepI R24Q mutant it was 147 ± 17 µM; on CepI Q46R mutant, 19.2 ± 3.5 µM. Also, the “density of the 2-DE protein spot of the giant cable pilus protein CblA” value in the experiment on B. cenocepacia J2315 is “higher density”. Also, the “compound 8b IC50” value on CepI Q46R mutant (CepI Q46R, 70 μM C8-ACP, 40 μM SAM, 4 μM CepI) is recorded as “comparable to wild type CepI”.
